Results from patent US20120053119A1, “THERAPEUTIC METHOD FOR INCREASING PANCREATIC BETA CELL MASS” (priority 2009, published 2012).

Assays:
Type in all cases: cell-based
INS-1 cells [1] = test: Real time RT-PCR of beta-catenin and cyclin D1 mRNA in INS-1 cells; conditions: SDF-1 4 hr, relative to vehicle-treated control
Method: FIG. 9. […] Data are normalized by using the housekeeping gene GADPH as an internal control and represent means±S.D. of three independent experiments. Statistical significance is depicted as (p<0.01) when compared with control values.
Gene expression profiling on focused microarrays INS-1 cells were untreated or treated with 10 nM SDF-1 for 4 hrs. Total RNA was isolated and Biotin-labeled complimentary RNAs were generated using the TrueLabeling-AMP Linear RNA Amplification Kit (SuperArray Bioscience Corp.) The Wnt-signaling pathway-focused microarray filters (118 probes) (SuperArray Bioscience Corp.) were hybridized with these biotin-labeled targets (5 microg/array at 60 C overnight. The filters were washed and subsequently incubated with alkaline phosphatase-conjugated streptavidin and CDPStar substrate. The Chemiluminescent images were captured using Kodak Digital Station 440 (Perkin Elmer). For quantification, the spot intensity was measured and normalized to the value of the housekeeping gene GAPDH. Fold-changes in gene expression levels were determined by comparisons of hybridization densities of SDF-1 treated versus untreated INS-1 cells. Real time RT-PCR was carried out by using the SYBR® Green QPCR kit (Stratagene). Briefly, INS-1 cells were treated with 10 nM SDF-1 or PBS vehicle control for 4 h. […]

beta-catenin = test: Western immunoblot of total and active (unphosphorylated) beta-catenin in INS-1 cells
Method: FIG. 5. Inhibition of TCF7L2 or beta-catenin suppresses SDF-1 induced TOPflash activity. A. Dominant-negative TCF7L2 inhibits both basal and SDF-1-induced TOPflash activity. B. SiRNAs to beta-catenin SiRNAs inhibit SDF-1-stimulated Wnt signaling in INS-1 cells. INS-1 Cells were transfected and preincubated with TOPflash and the combination of either siRNAs 1 and 2, or scrambled siRNA and then treated for 4 hrs with 1 nM SDF-1 or control vehicle. Data are normalized for transfection efficiency by co-transfected beta-galactosidase and represent means±S.D. of three experiments. C. SDF-1 stabilizes beta-catenin through GPCR coupled Galphai/o. INS-1 cell cultures were stimulated with SDF-1 for the indicated times. Immunoblot analyses with anti-beta-catenin or anti-unphosphorylated beta-catenin (active beta-catenin).
Western Immunoblots Membrane immunoblots were prepared from extracts of INS-1 cells and were interrogated with antisera to beta-catenin: total protein (Santa Cruz), and active form with the mutated GSK-3 phosphorylation sites (UpState 8E7).
The transcriptional activation of Wnt target genes requires the association of TCF7L2 with nuclear beta-catenin. Therefore, we investigated whether active TCF7L2 is necessary for SDF-1-induced Wnt signaling. […]

INS-1 cells [2] = test: Cell proliferation assay, BrdU incorporation; conditions: SDF-1 10 nM overnight
Method: FIG. 6. Inhibition of apoptosis by SDF-1 in INS-1 and MIN-6 cells is reversed by knock-down of betacatenin. A. Western blot analysis of extracts from MIN6 cells that were mock treated, thapsigargin-treated (1 μM) and/or siRNA transfected (0.25 mg/ml), by using anti-serum against cleaved caspase-3 (upper panel), anti-serum against cleaved PARP (middle panel) and actin antibody (lower panel) as a loading control. B. Caspase-3 activity (fluorescence/mg proteinx105) of INS-1 or MIN6 cells mock treated, thapsigargin-treated (1 μM) and/or siRNA transfected (0.25 mg/ml). Results are presented as mean±SD for n=3 independent experiments, All values are relative to the first (leftmost) bar. Statistical significance is depicted as * (p<0.05) when compared with control values (leftmost bar) and # (<0.05) when compared with […] thapsigargin treatment. C. Representative images are shown for TUNEL staining of INS-1 cells of n=3 independent experiments. Quantification of apoptotic cells is expressed as percent apoptotic cells relative to the total cells counted (lower left panel). […]
Cell Proliferation Assay Proliferation of INS-1 cells was determined by incorporation of BrdU into newly synthesized DNA of proliferating cells. […] BrdU staining was measured by the DELFIA cell proliferation kit (Perkin Elmer).

alpha-TC-1 cells = test: BrdU incorporation cell proliferation assay in alpha-TC-1 cells; conditions: serum starved alpha-TC-1 cells, SDF-1 10 nM, 20 hrs
Method: FIG. 16. BrdU incorporation cell proliferation assay. Serum starved alpha-TC-1 cells were treated with either PBS (Control) or SDF-1 (10 nM) for 20 hrs, and their proliferation rate was examined by a BrdU incorporation assay. Data represent means±S.D. of three experiments. Statistical significance is depicted as * (p<0.05) when compared with control values (left bar).

human islets = test: SDF-1 mRNA by QRT-PCR in human islets ex vivo; conditions: 4 hours; SDF-1 10 nM or 50 nM; two cytokine mixtures
Method: FIG. 29. […] 50 human islets were treated with control, cytokine mixture or SDF-1 for 4 hr, mRNA was then extracted and QRT-PCR was performed. Cytokines 1: 2 ng/ml IL-1beta, 10 ng/ml TNF-alpha, 10 ng/ml IFN-gamma. Cytokines 2: 10 ng/ml IL-1beta, 50 ng/ml TNF-alpha, 50 ng/ml IFN-gamma.
Groups of 50 human islet cells were treated with one of vehicle control, two different cytokine mixtures (Cytokines 1: 2 ng/ml IL-1beta, 10 ng/ml TNF-alpha, 10 ng/ml IFN-gamma; Cytokines 2: 10 ng/ml IL-1beta, 50 ng/ml TNF-alpha, 50 ng/ml IFN-gamma), or SDF-1 at one of two different concentrations (10 nM or 50 nM) for 4 hours. SDF-1 mRNA was then extracted and QRT-PCR was performed.

For “SDF-1: small, secreted 70 amino acid peptide chemokine, SEQ ID NO: 1, ligand of CXCR4”, the “beta-catenin mRNA expression” value (INS-1 cells [1]) was 3 fold, the “cyclin D1 mRNA expression” value (INS-1 cells [1]) was 2 fold and the “level of active beta-catenin (unphosphorylated on Ser-33 and Ser-37)” value (beta-catenin; 30 min after SDF-1 treatment) was “increased”. The total beta-catenin (beta-catenin; after 24-48 hours of SDF-1 treatment) was “substantial increase”, the “effect on proliferation of INS-1 cells, BrdU incorporation” value (INS-1 cells [2]) was “no detectable effects” and the “proliferation of alpha cells (BrdU incorporation)” value (alpha-TC-1 cells) was “stimulates the proliferation”. For the same substance, the “SDF-1 expression (mRNA) in human islets” value (human islets) was “induce SDF-1 expression”.
